In one series the test system is human. The conditions noted are these: ref Material Safety Data Sheet (MSDS); cited from earlier work.
The next series concerns Mouse. The conditions noted are these: cited from earlier work.
Details of series [1]: method as in PMID 16302765, PMID 12499265. The note with it: sodium phosphate buffer pH 7.4, 3 h; cited from earlier work.
Details of series [2]: method as in PMID 9177723. The note with it: humans, single oral intake of 97 mg; cited from earlier work.
In a further series the target is T1, α-glucosidase (Saccharomyces cerevisiae, UniProt P53341).
T1 construct: purchased Sinopharm Group Chemical Reagent Co. (Shanghai, China)
T1 sequence (P53341 whole entry): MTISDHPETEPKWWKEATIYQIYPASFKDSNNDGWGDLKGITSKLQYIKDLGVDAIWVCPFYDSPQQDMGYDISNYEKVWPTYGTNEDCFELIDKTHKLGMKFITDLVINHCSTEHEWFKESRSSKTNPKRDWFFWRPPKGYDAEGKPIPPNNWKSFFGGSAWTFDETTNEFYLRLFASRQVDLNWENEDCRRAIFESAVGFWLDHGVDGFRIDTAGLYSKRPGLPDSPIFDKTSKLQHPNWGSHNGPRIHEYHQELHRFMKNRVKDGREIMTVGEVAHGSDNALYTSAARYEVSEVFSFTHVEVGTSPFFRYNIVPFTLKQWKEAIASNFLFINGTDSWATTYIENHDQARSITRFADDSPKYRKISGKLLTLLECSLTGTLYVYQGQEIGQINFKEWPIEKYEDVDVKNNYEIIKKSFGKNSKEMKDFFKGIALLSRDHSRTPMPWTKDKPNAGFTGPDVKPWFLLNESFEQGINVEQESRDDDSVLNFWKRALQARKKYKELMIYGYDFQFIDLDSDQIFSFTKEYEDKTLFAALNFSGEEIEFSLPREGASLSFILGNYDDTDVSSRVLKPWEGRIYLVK
In words: α-Glucosidase inhibition assay (PNPG substrate). The class given is biochemical. The method, then:
(§1) All of the other solvents and chemicals used were obtained from Sinopharm Group Chemical Reagent Co., Ltd. (Shanghai, China) and were of analytical grade. Sodium phosphate buffer (PBS) was purchased from Solarbio Co. (Beijing, China) and was prepared to make a concentration of 0.01 M aqueous solution (pH 7.2).
The activity of α-glucosidase was determined in a 96-well plate based on 4-Nitrophenyl […]-D-glucopyranoside (PNPG) as a substrate.

Series [3] can be described thus: pH stability in alkalescent condition (HPLC). The format is physicochemical. The note with it: ethanol/PBS 80:20, pH 7.2, 37 °C, open air, 1.3 mM. The procedure:
(§2) Since the intestine system is alkalescent, it is necessary to assess the stability of EGCG and PEGCG under this condition.
Equivalent molar concentrations (1.3 mM) of EGCG and PEGCG were incubated in Pyrex test tubes (20 × 1.6 cm, i.d.) in the open air at 37 °C, respectively, without any agitation. Aliquots (20 µL) of the incubation solution was periodically (1, 2, 5 h) sampled and subjected to HPLC analysis, respectively. HPLC condition was the same as Item 2.5.

Details of series [4]: method as in PMID 9177723. The conditions noted are these: rats, 56 mg of EGCG orally; cited from earlier work.
A short description of series [5]: Storage stability of powder in open air. The format is physicochemical. The note with it: room temperature, 60 d. The text has this:
To study the storage stability of EGCG and PEGCG powder, […] of the two powders were kept in the open air at room temperature, respectively. After 60 days, aliquots of the two powders were sampled and subjected to HPLC analysis, respectively. The HPLC condition was the same as Item 2.5.

Series [6] is described as follows: Thermal stability (TG analysis). The format is physicochemical. The conditions noted are these: 30 to 400 °C, 10 °C/min, nitrogen. The procedure:
The thermal stability behaviors of EGCG and PEGCG were investigated on a TG apparatus (SDT […], TA Instruments, New Castle, DE, USA). About 3.0 mg of each sample was used to perform the analysis by putting the powder on a TG pan. The sample was scanned from 30 to 400 °C with a heating rate of 10 °C/min under a nitrogen atmosphere.

Series [7] relates to porcine pancreatic α-amylase. Put plainly: α-Amylase inhibition assay. The format is biochemical. The conditions noted are these: ratio of IC50 values versus EGCG. The procedure:
as §1

A short description of another series: Solubility in PBS. The format is physicochemical.
Text: as §2

[8] abbreviates: Mouse, acute toxicity, ref Material Safety Data Sheet (MSDS).

The structures appear in SMILES notation. Like-named read-outs stand apart in the source and are kept apart here.

Broadly, the IC50 is the concentration at which inhibition is half-maximal. By LD50 is commonly meant the dose expected to kill half of the subjects tested.

Sequence of porcine pancreatic α-amylase (P06278 30-512): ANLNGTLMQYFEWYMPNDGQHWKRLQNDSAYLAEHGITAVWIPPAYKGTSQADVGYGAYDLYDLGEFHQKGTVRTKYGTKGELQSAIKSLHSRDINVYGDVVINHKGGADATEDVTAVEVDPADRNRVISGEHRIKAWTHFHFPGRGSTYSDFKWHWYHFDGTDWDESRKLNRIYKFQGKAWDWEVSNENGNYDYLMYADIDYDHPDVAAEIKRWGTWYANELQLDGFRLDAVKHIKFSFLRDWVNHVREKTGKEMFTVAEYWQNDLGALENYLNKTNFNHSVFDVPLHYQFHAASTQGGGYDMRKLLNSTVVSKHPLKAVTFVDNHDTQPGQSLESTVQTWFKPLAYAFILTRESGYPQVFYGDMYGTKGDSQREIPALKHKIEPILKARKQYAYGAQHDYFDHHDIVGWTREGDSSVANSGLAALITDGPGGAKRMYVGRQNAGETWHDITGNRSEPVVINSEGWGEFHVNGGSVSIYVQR

With `CN(C)c1ccncc1` [4-dimethylaminopyridine (DMAP), 4-dimethylaminopyridine], the “Harm to Human Health” value in the series with human is given as “Irritating to the eyes; eating poisonous”. Besides, the Acute toxicity grade entry in the series with Mouse (setting [8]) is “LD50 250 mg/kg, medium toxicity”.
In the case of `O=C(O[C@@H]1Cc2c(O)cc(O)cc2O[C@@H]1c1cc(O)c(O)c(O)c1)c1cc(O)c(O)c(O)c1` [EGCG, (−)-Epigallocatechin gallate], the EGCG lost in series [1] was 90%. Further, the “absorbed after oral dose” value in [2] is 0.32%. The same molecule returned an IC50 at α-glucosidase of 11.5 ± 0.02 µM. For the same molecule, in series [3], the “degraded / hydrolyzed after 1 h” value turned out to be 93% and the “degraded / hydrolyzed after 5 h” value was “utterly degraded”. In series [4], the “absorbed after oral dose” value is 0.01%. The remained after storage in series [5] is on record as 45%. In series [6], this molecule returned a thermal decomposition temperature of 234.5 °C.
Regarding `CCCCCCCCCCCCCCCC(=O)Oc1c(O)cc([C@H]2Oc3cc(O)cc(O)c3C[C@H]2OC(=O)c2cc(O)c(O)c(O)c2)cc1O` [PEGCG, 4′-O-palmitoyl EGCG], the “α-amylase inhibitory activity relative to EGCG” value in [7] was determined as 4.5 times. In addition, on α-glucosidase (37 °C, PNPG substrate, read-out: IC50 for α-Glucosidase), the IC50 stood at 0.22 ± 0.03 µM. Moreover, the “α-glucosidase inhibitory activity relative to EGCG” value at α-glucosidase (ratio of IC50 values versus EGCG) is on record as 52 times. Besides, at α-glucosidase (ratio of IC50 values versus acarbose), the “α-glucosidase inhibitory activity relative to acarbose” value is on record as 0.68 times. Moreover, in series [3], the “degraded / hydrolyzed after 1 h” value was “most of the PEGCG was hydrolyzed to EGCG and its dimers”; the “degraded / hydrolyzed after 5 h” value is given as 100%. Besides, the remained after storage in series [5] came out at 78%. Also, in the series “Solubility in PBS”, the “solubility in PBS” value was “insoluble in PBS”. The same molecule showed a thermal decomposition temperature in series [6] of 311.19 °C.
In the case of `c1ccncc1` [Pyridine], in the series on human, the “Harm to Human Health” value is reported as “Strong irritant; anesthetizes the central nervous system”. Further, in the series with Mouse (mouse, in vivo), the Acute toxicity grade entry was “LD50 1580 mg/kg, mild toxicity” and the LD50 entry is given as “LD50 1580 mg/kg, mild toxicity”.
As for `CC(=O)[O-].[Na+]` [Sodium acetate], in the series with human, the “Harm to Human Health” value is listed as “None”. Further, in the series with Mouse (mouse, in vivo), the Acute toxicity grade result is “LD50 25,956 mg/kg, non-toxic” and the LD50 result is “LD50 25,956 mg/kg, non-toxic”.
As to `O=C([O-])[O-].[Na+].[Na+]` [Sodium carbonate], the “Harm to Human Health” value in the series with human was “Irritant and corrosive”.
Consider `CCN(CC)CC` [Triethylamine], for which the “Harm to Human Health” value with human is recorded as “strong irritant to the respiratory tract; after inhaling can cause pulmonary edema or even death”. Besides, the Acute toxicity grade entry in the series on Mouse (setting [8]) is given as “medium toxicity”. The LD50 in the series with Mouse (mouse, in vivo) is 460 mg/kg.

The values above are taken from article PMC7828495, “Synthesis, Stability, and Antidiabetic Activity Evaluation of (−)-Epigallocatechin Gallate (EGCG) Palmitate Derived from Natural Tea Polyphenols” (Molecules, 2021).
